We go through 35 compounds from patent publication US20090054392A1, “NAPHTHYLPYRIMIDINE, NAPHTHYLPYRAZINE AND NAPHTHYLPYRIDAZINE ANALOGS AND THEIR USE AS AGONISTS OF THE WNT-BETA-CATENIN CELLULAR MESSAGING SYSTEM” (Wyeth, priority 2007, published 2009).

As usually defined, the EC50 is the concentration at which the effect is half-maximal. A higher EC50 goes with lower potency in that assay.

The test system of this data set is Dkk1-LRP5-TCF-Luciferase. The data set is described as follows: Functional Dkk1-LRP5-TCF-Luciferase Assay in U2OS Cells. Conditions: for fold induction at 20 µM / EC50 / fold induction at 2 µM: Homo sapiens, U2OS; for fold induction at 20 µM: read-out: C = TCF ACTIVITY/DMSO CONTROL Fold induction @ 20.0 uM, 20.0 uM compound; for A = MAX FOLD Induction/DMSO CONTROL: maximum fold induction over DMSO control; for fold induction at 2 µM: read-out: B = TCF ACTIVITY/DMSO CONTROL Fold induction @ 2.0 uM, 2.0 uM compound.

As for `COC(=O)N1CC[C@@H](Nc2nccc(-c3ccc4ccccc4c3)n2)C1` [methyl (3R)-3-{[4-(2-naphthyl)pyrimidin-2-yl]amino}pyrrolidine-1-carboxylate], the fold induction at 20 µM amounted to 2.35 and the “A = MAX FOLD Induction/DMSO CONTROL” value worked out at 1.360 fold.
For `c1ccc2cc(-c3ccnc(N4CC[C@H](n5ccnc5)C4)n3)ccc2c1` [2-[(3S)-3-(1H-imidazol-1-yl)pyrrolidin-1-yl]-4-(2-naphthyl)pyrimidine], the midpoint of the response, the EC50, lay at 3.93 µM; the fold induction at 2 µM came to 1.29; the fold induction at 20 µM worked out at 3.92; the “A = MAX FOLD Induction/DMSO CONTROL” value came to 3.800 fold.
For the compound `CN(C)S(=O)(=O)N1CC[C@@H](Nc2nccc(-c3ccc4ccccc4c3)n2)C1` [(3R)—N,N-dimethyl-3-{[4-(2-naphthyl)pyrimidin-2-yl]amino}pyrrolidine-1-sulfonamide], a half-maximal response (EC50) required 3.16 µM, the fold induction at 20 µM worked out at 2.31 and the “A = MAX FOLD Induction/DMSO CONTROL” value is recorded as 2.510 fold.
Turning to `NC1CCN(c2nccc(-c3ccc4ccccc4c3)n2)CC1` [1-[4-(2-naphthyl)pyrimidin-2-yl]piperidin-4-amine], the midpoint of the response, the EC50, lay at 0.97 µM; the fold induction at 2 µM was 2.11; the “A = MAX FOLD Induction/DMSO CONTROL” value amounted to 1.580 fold.
In the case of `Cc1ccc(S(=O)(=O)N2CC(CNc3nccc(-c4ccc5ccccc5c4)n3)C2)cc1` [N-({1-[(4-methylphenyl)sulfonyl]azetidin-3-yl}methyl)-4-(2-naphthyl)pyrimidin-2-amine], the fold induction at 2 µM turned out to be 1.45 and the fold induction at 20 µM is 1.2.
The like results for `CN(C[C@H]1CCN(c2nccc(-c3ccc4ccccc4c3)n2)C1)C1CCCCC1` [N-methyl-N-({(3R)-1-[4-(2-naphthyl)pyrimidin-2-yl]pyrrolidin-3-yl}methyl)cyclohexanamine] were, in that order, 1.27 and 1.6.
Consider `CCN(CC)C(=O)N[C@@H]1CCN(c2nccc(-c3ccc4ccccc4c3)n2)C1` [N,N-diethyl-N′-{(3R)-1-[4-(2-naphthyl)pyrimidin-2-yl]pyrrolidin-3-yl}urea], for which the fold induction at 2 µM was 1.22, the fold induction at 20 µM is 1.8 and the “A = MAX FOLD Induction/DMSO CONTROL” value was determined as 1.270 fold.
As for `CN(c1nccc(-c2ccc3ccccc3c2)n1)[C@H]1CC[C@H](CN)CC1` [N-[trans-4-(aminomethyl)cyclohexyl]-N-methyl-4-(2-naphthyl)pyrimidin-2-amine], the fold induction at 2 µM is 1.4.
For `c1ccc2cc(-c3ccnc(N4CC[C@@H](N5CCNCC5)C4)n3)ccc2c1` [4-(2-naphthyl)-2-[(3R)-3-piperazin-1-ylpyrrolidin-1-yl]pyrimidine], the fold induction at 2 µM worked out at 3.44 and the “A = MAX FOLD Induction/DMSO CONTROL” value was determined as 2.510 fold.
Turning to `OC1CCN([C@H]2CCN(c3nccc(-c4ccc5ccccc5c4)n3)C2)CC1` [1-{(3S)-1-[4-(2-naphthyl)pyrimidin-2-yl]pyrrolidin-3-yl}piperidin-4-ol], the fold induction at 2 µM was 1.31 and the fold induction at 20 µM came out at 0.26.
`c1ccc2cc(-c3ccnc(N4CCCCC4)n3)ccc2c1` [4-(2-naphthyl)-2-piperidin-1-ylpyrimidine]: the fold induction at 2 µM is 0.92 and the fold induction at 20 µM came out at 1.79.
Take `O[C@@H]1CCN([C@H]2CCN(c3nccc(-c4ccc5ccccc5c4)n3)C2)C1` [(3R,3′S)-1′-[4-(2-naphthyl)pyrimidin-2-yl]-1,3′-bipyrrolidin-3-ol]: the fold induction at 2 µM turned out to be 2.1.
In the case of `Cc1ccc(S(=O)(=O)N[C@H]2CCN(c3nccc(-c4ccc5ccccc5c4)n3)C2)cc1` [4-methyl-N-{(3S)-1-[4-(2-naphthyl)pyrimidin-2-yl]pyrrolidin-3-yl}benzenesulfonamide], the fold induction at 2 µM was found to be 1.24.
Take `CCN(CC)C(=O)N[C@H]1CCN(c2nccc(-c3ccc4ccccc4c3)n2)C1` [N,N-diethyl-N′-{(3S)-1-[4-(2-naphthyl)pyrimidin-2-yl]pyrrolidin-3-yl}urea]: the fold induction at 2 µM came to 1.83.
For `NCc1ccc(-c2nccc(-c3ccc4ccccc4c3)n2)cc1` [1-{4-[4-(2-naphthyl)pyrimidin-2-yl]phenyl}methanamine], the fold induction at 2 µM is 2.5.
On to `O[C@H]1CCN([C@@H]2CCN(c3nccc(-c4ccc5ccccc5c4)n3)C2)C1` [(3S,3′R)-1′-[4-(2-naphthyl)pyrimidin-2-yl]-1,3′-bipyrrolidin-3-ol], for which the fold induction at 20 µM was found to be 3.
In the case of `CC(C)(C)OC(=O)NCC1CCCN(c2nccc(-c3ccc4ccccc4c3)n2)C1` (centres unmarked) [tert-butyl ({1-[4-(2-naphthyl)pyrimidin-2-yl]piperidin-3-yl}methyl)carbamate], the fold induction at 2 µM stood at 0.91 and the fold induction at 20 µM is 1.94.
For `CCN(C)CCN(C)[C@@H]1CCN(c2nccc(-c3ccc4ccccc4c3)n2)C1` [N-ethyl-N,N′-dimethyl-N′-{(3R)-1-[4-(2-naphthyl)pyrimidin-2-yl]pyrrolidin-3-yl}ethane-1,2-diamine], the fold induction at 2 µM was found to be 1.8.
As for `O=C(N1CCCC1)N1CCC(CNc2nccc(-c3ccc4ccccc4c3)n2)CC1` [4-(2-naphthyl)-N-{[1-(pyrrolidin-1-ylcarbonyl)piperidin-4-yl]methyl}pyrimidin-2-amine], the fold induction at 2 µM came to 1.08 and the fold induction at 20 µM was found to be 0.907.
As to `c1ccc2cc(-c3ccnc(N4CCC(CN5CCCC5)C4)n3)ccc2c1` (centres unmarked) [4-(2-naphthyl)-2-[3-(pyrrolidin-1-ylmethyl)pyrrolidin-1-yl]pyrimidine], the response was half-maximal at 7.59 µM (EC50), the fold induction at 2 µM was 1.87 and the “A = MAX FOLD Induction/DMSO CONTROL” value came out at 7.000 fold.
In the case of `O=C(NCCC1CCN(c2nccc(-c3ccc4ccccc4c3)n2)CC1)C(F)(F)F` [2,2,2-trifluoro-N-(2-{1-[4-(2-naphthyl)pyrimidin-2-yl]piperidin-4-yl}ethyl)acetamide], the fold induction at 2 µM worked out at 1.77 and the fold induction at 20 µM is 1.04.
In the case of `CN(C)CCN(C)[C@H]1CCN(c2nccc(-c3ccc4ccccc4c3)n2)C1` [N,N,N′-trimethyl-N′-{(3S)-1-[4-(2-naphthyl)pyrimidin-2-yl]pyrrolidin-3-yl}ethane-1,2-diamine], the fold induction at 2 µM was 1.2.
As for `COC(=O)[C@@H](NC(=O)OC(C)(C)C)C1CCN(c2nccc(-c3ccc4ccccc4c3)n2)CC1` [methyl (2S)-[(tert-butoxycarbonyl)amino]{1-[4-(2-naphthyl)pyrimidin-2-yl]piperidin-4-yl}acetate], the fold induction at 20 µM was 0.7.
Consider `CN(C)[C@H]1CCN(c2nccc(-c3ccc4ccccc4c3)n2)C1` [(3S)—N,N-dimethyl-1-[4-(2-naphthyl)pyrimidin-2-yl]pyrrolidin-3-amine], for which the EC50 is 3 µM, the fold induction at 20 µM was found to be 0.08 and the “A = MAX FOLD Induction/DMSO CONTROL” value is listed as 3.390 fold.
As for `CC(C)(C)NC(=O)[C@H]1CCCN1c1nccc(-c2ccc3ccccc3c2)n1` [N-tert-butyl-1-[4-(2-naphthyl)pyrimidin-2-yl]-D-prolinamide], the fold induction at 2 µM stood at 1.16 and the fold induction at 20 µM was found to be 0.6.
`O=C([C@H]1CCCN1c1nccc(-c2ccc3ccccc3c2)n1)N1CCCC1` [4-(2-naphthyl)-2-[(2R)-2-(pyrrolidin-1-ylcarbonyl)pyrrolidin-1-yl]pyrimidine]: the fold induction at 2 µM was found to be 1.05 and the fold induction at 20 µM worked out at 1.1.
The like results for `CC(C)(C)OC(=O)N[C@@H](CO)C1CCN(c2nccc(-c3ccc4ccccc4c3)n2)CC1` [tert-butyl ((1R)-2-hydroxy-1-{1-[4-(2-naphthyl)pyrimidin-2-yl]piperidin-4-yl}ethyl)carbamate] were, in that order, 1.13 and 0.35.
Take `CO[C@@H]1CCN(c2nccc(-c3ccc4ccccc4c3)n2)C1` [2-[(3R)-3-methoxypyrrolidin-1-yl]-4-(2-naphthyl)pyrimidine]: a half-maximal response (EC50) required 0.659 µM, the fold induction at 2 µM worked out at 1.36, the fold induction at 20 µM amounted to 3.1 and the “A = MAX FOLD Induction/DMSO CONTROL” value was determined as 1.990 fold.
Consider `CS(=O)(=O)NCC1CCN(c2nccc(-c3ccc4ccccc4c3)n2)C1` (centres unmarked) [N-({1-[4-(2-naphthyl)pyrimidin-2-yl]pyrrolidin-3-yl}methyl)methanesulfonamide], for which the fold induction at 2 µM came to 0.88 and the fold induction at 20 µM was determined as 1.63.
`CC(C)NC(=O)N1CCC(Nc2nccc(-c3ccc4ccccc4c3)n2)CC1` [N-isopropyl-4-{[4-(2-naphthyl)pyrimidin-2-yl]amino}piperidine-1-carboxamide]: the fold induction at 2 µM was 1.07 and the fold induction at 20 µM is 1.37.
`c1ccc(CNc2nccc(-c3ccc4ccccc4c3)n2)nc1` [4-(2-naphthyl)-N-(pyridin-2-ylmethyl)pyrimidin-2-amine]: the fold induction at 2 µM was found to be 1.72, the fold induction at 20 µM came out at 1.55 and the “A = MAX FOLD Induction/DMSO CONTROL” value amounted to 2.690 fold.
The matching figures for `CN(C)C(=O)N1CCCN(c2nccc(-c3ccc4ccccc4c3)n2)CC1` [N,N-dimethyl-4-[4-(2-naphthyl)pyrimidin-2-yl]-1,4-diazepane-1-carboxamide]: 1.2, 2.26 and 1.520 fold.
In the case of `c1ccc2cc(-c3ccnc(NCCN4CCOCC4)n3)ccc2c1` [N-(2-morpholin-4-ylethyl)-4-(2-naphthyl)pyrimidin-2-amine], the EC50 turned out to be 5.7 µM, the fold induction at 2 µM is 2.11, the fold induction at 20 µM was determined as 2.44 and the “A = MAX FOLD Induction/DMSO CONTROL” value amounted to 1.853 fold.
For the compound `CCN(CC)CC1CCN(c2nccc(-c3ccc4ccccc4c3)n2)C1` (centres unmarked) [N-ethyl-N-({1-[4-(2-naphthyl)pyrimidin-2-yl]pyrrolidin-3-yl}methyl)ethanamine], the fold induction at 2 µM is 1.58.
On to `O=C(c1ccccc1)N1CCC(Nc2nccc(-c3ccc4ccccc4c3)n2)CC1` [N-(1-benzoylpiperidin-4-yl)-4-(2-naphthyl)pyrimidin-2-amine], for which the fold induction at 2 µM came to 1.95, the fold induction at 20 µM was found to be 0.01 and the “A = MAX FOLD Induction/DMSO CONTROL” value is 1.490 fold.
